Legend:
[1] = system: kochia (KCHSC, Kochia scoparia); experiment: Patio postemergence trial, % visual injury; assay type: in vivo; conditions: 280 g ae/ha alone, 20-22 d
Method: (§1) The plants were grown for 7-36 days (d) on a fenced, open-air patio. Nutrients and water were added on a regular basis.
(§2) Temperatures and photoperiods were dependent on the natural weather conditions during the trials. Weather conditions during trials were conducive for plant growth and development.

[2] = system: pigweed (AMARE, Amaranthus retroflexus); experiment: Patio postemergence trial, % visual injury; assay type: in vivo; conditions: 280 g ae/ha alone, 20-22 d
Method: as §1, §2

[3] = system: CIRAR = Cirsium arvense (Canadian thistle); experiment: Small plot field trial (Canada), % visual injury; assay type: in vivo; conditions: 560 g ae/ha alone, 46-64 DAA
Method: (§3) Trials were established as randomized complete blocks with 3-4 replicates. Individual plots were 2-3 meters (m) wide and 8-10 m long. Applications were made with backpack or tractor-mounted sprayers delivering a spray volume output of 100 liters per hectare (L/ha) using pressurized carbon dioxide (CO2) as a propellant. Compound 7 was combined with 2,4 D EHE (660 g ae/L EC formulation) and applied to spring wheat (TRZAS), and the phytotoxicity of the herbicidal compositions was measured. In addition, the efficacy of the herbicidal composition on Canadian thistle ([…], Cirsium arvense), […] scoparia), mallow ([…] pusilla), wild buckwheat (POLCO, Polygonum convolvulus), and lady's thumb (POLPE, Polygonum persicaria) was evaluated.

[4] = system: MALPU = Malva pusilla (mallow); experiment: Small plot field trial (Canada), % visual injury; assay type: in vivo; conditions: 560 g ae/ha alone, 26-33 DAA
Method: as §3

[5] = system: kochia (KCHSC, Kochia scoparia); experiment: Small plot field trial (Canada), % visual injury; assay type: in vivo; conditions: 560 g ae/ha alone, 46-64 DAA
Method: as §3

[6] = system: wild buckwheat (POLCO, Polygonum convolvulus); experiment: Small plot field trial (Canada), % visual injury; assay type: in vivo; conditions: 560 g ae/ha alone, 15 DAA
Method: as §3

[7] = system: spring wheat (TRZAS); experiment: Small plot field trial (Canada), crop phytotoxicity (% visual injury); assay type: in vivo, Triticum aestivum; conditions: 560 g ae/ha alone
From the text: Small plot field trials were established in Canada to evaluate efficacy and crop safety of Compound 7 with 2,4-D EHE. Trials were established as randomized complete blocks with 3-4 replicates. Individual plots were 2-3 meters (m) wide and 8-10 m long. Applications were made with backpack or tractor-mounted sprayers delivering a spray volume output of 100 liters per hectare (L/ha) using pressurized carbon dioxide (CO2) as a propellant. Compound 7 was combined with 2,4 D EHE (660 g ae/L EC formulation) and applied to spring wheat (TRZAS), and the phytotoxicity of the herbicidal compositions was measured. In addition, the efficacy of the herbicidal composition on Canadian thistle ([…], Cirsium arvense), kochia (KCHSC, Kochia scoparia), mallow (MALPU, Marva pusilla), wild buckwheat (POLCO, Polygonum convolvulus), and lady's thumb (POLPE, Polygonum persicaria) was evaluated.

[8] = system: winter wheat (TRZAW); conditions: winter wheat (Triticum aestivum), in vivo
[9] = system: turnip (Brassica rapa, BRSRR); experiment: Greenhouse postemergence trial, % visual injury; assay type: in vivo; conditions: for % visual injury, Obs: BRSRR, compound 1 (EC) 5 g ae/ha
[10] = system: wild radish (Raphanus raphanistrum, RAPRA); experiment: Greenhouse postemergence trial, % visual injury; assay type: in vivo
[11] = system: Indian hedge mustard (Sisymbrium orientale, SSYOR); experiment: Greenhouse postemergence trial, % visual injury; assay type: in vivo
[12] = system: Chinese kale (Brassica alboglabra, BRSAG); experiment: Greenhouse postemergence trial, % visual injury; assay type: in vivo; conditions: for % visual injury, Obs: BRSAG, compound 1 (EC) 5 g ae/ha
[13] = system: brown mustard (Brassica juncea, BRSJU); experiment: Greenhouse postemergence trial, % visual injury; assay type: in vivo
[14] = system: rutabaga (Brassica napus var. napobrassica, BRSNA); experiment: Greenhouse postemergence trial, % visual injury; assay type: in vivo
[15] = system: large crabgrass (Digitaria sanguinalis, DIGSA); experiment: Greenhouse postemergence trial, % visual injury; assay type: in vivo; conditions: Digitaria sanguinalis, post-emergence; DIGSA, 5 g ae/ha; read-out: % visual injury, Obs
[16] = system: barnyardgrass (Echinochloa crus-galli, ECHCG); experiment: Greenhouse postemergence trial, % visual injury; assay type: in vivo
[17] = system: soybean (Glycine max, GIAMA); experiment: Greenhouse postemergence trial, % visual injury; assay type: in vivo; conditions: GLXMA
[18] = system: ivyleaved speedwell (Veronica hederifolia, VERHE); experiment: Greenhouse postemergence trial, % visual injury; assay type: in vivo; conditions: compound 1 (EC) 5 g ae/ha
[19] = system: Roundup Ready rape (Brassica napus, BRSNN-RR); experiment: Greenhouse postemergence trial, % visual injury; assay type: in vivo; conditions: compound 1 (EC) 5 g ae/ha
[20] = 5 g ae/ha alone (compound 1 as EC), 20-22 d

CCCCC(CC)COC(=O)COc1ccc(Cl)cc1Cl (centres unmarked) [2,4-D EHE, 2-ethylhexyl (2,4-dichlorophenoxy)acetate, reference compound]
% visual injury Obs [1]: 10% | % visual injury Obs [2]: 50% | % visual injury Obs [3]: 65% | % visual injury Obs [4]: 74% | % visual injury Obs [5]: 25% | % visual injury Obs [6]: 51% | % visual injury Obs ([7]; 6-8 DAA): 3% | % visual injury Obs ([7]; 14-16 DAA): 0% | % visual injury, Obs [8]: 0%

Nc1c(F)c(-c2ccc3cc[nH]c3c2F)nc(C(=O)O)c1Cl [compound 1]
% visual injury, Obs ([9]; Table 62): 50% | % visual injury, Obs ([9]; Table 63): 50% | % visual injury (Obs) ([9]; compound 1 SC 2.5 g ae/ha): 45% | % visual injury (Obs) ([9]; compound 1 SC 5 g ae/ha): 62% | % visual injury (Obs) ([10]; compound 1 SC 2.5 g ae/ha): 13% | % visual injury (Obs) ([10]; compound 1 SC 5 g ae/ha): 13% | % visual injury (Obs) ([11]; compound 1 SC 2.5 g ae/ha): 13% | % visual injury (Obs) ([11]; compound 1 SC 5 g ae/ha): 20% | % visual injury Obs [12, 20]: 15% | % visual injury, Obs ([12]; Table 62): 15% | % visual injury, Obs ([12]; Table 63): 15% | % visual injury Obs [13, 20]: 60% | % visual injury, Obs ([13]; BRSJU, compound 1 (EC) 5 g ae/ha, Table 62): 60% | % visual injury Obs [14, 20]: 65% | % visual injury, Obs ([14]; BRSNA, compound 1 (EC) 5 g ae/ha, Table 63): 65% | pest or weed control at 5 g/ha [15]: 0% | % visual injury, Obs ([16]; ECHCG, 5 g ae/ha): 65% | % visual injury (Obs) ([16]; compound 1 (EC) 5 g ae/ha): 65% | % visual injury, Obs ([17]; 5 g ae/ha): 95% | % visual injury, Obs ([17]; 10 g ae/ha): 100% | % visual injury (Obs) [18]: 40% | % visual injury, Obs ([19]; Table 62): 35% | % visual injury, Obs ([19]; Table 63): 35%
